Experimental data as given in publication PMC11990898, “Novel Isatin–Chalcone Hybrid Molecules: Design, Synthesis and Anti-Neuroinflammatory Activity Evaluation” (Molecules, 2025).

Experiments:
Format in all cases: cell-based, mouse
IL-6 = assay: ELISA of IL-6 released by LPS-stimulated BV2 cells; conditions: for effect on production of IL-6: result in words
Method: (§1) BV2 cells were plated in 96-well microplates at 40,000 cells per well (100 μL/well) and incubated for 24 h. Then, 50 μL of LPS solution with a final concentration of 100 ng/mL and 50 μL of compounds (diluted with medium to a final concentration of 0.75–40 μM) were added, and each concentration had 3 parallel wells. The supernatant was collected after 24 h. Then, according to the manufacturer’s instructions, the ELISA assay kit was used to measure the concentrations of IL-6 and TNF-α. The absorbance was detected at 450 nm.

TNF-α = assay: ELISA of TNF-α released by LPS-stimulated BV2 cells; conditions: for effect on production of TNF-α: result in words
Method: as §1

BV2 microglial cells = assay: Cell viability assay (MTS) on BV2 cells; conditions: for IC50: Mus musculus, BV-2, MTS, 24 h
Method: (§2) BV2 microglial cells (SCSP-5208, Cell Bank, Chinese Academy of Sciences, Shanghai, China) were incubated in high-glucose DMEM supplemented with 10% fetal bovine serum and 1% penicillin and streptomycin in a humidified atmosphere of 5% CO2 at 37 °C.
(§3) BV2 cells were plated in 96-well microplates at 20,000 cells per well (100 μL/well) and incubated for 24 h. Then, 100 μL of compounds (diluted with medium to a final concentration of 1.56–100 μM) was added, and each concentration had 3 parallel wells. After 24 h, the cell viability was measured by MTS assay. The absorbance was detected at 490 nm. The percentage of viability was obtained from the following formula: ODdrug-treated/ODnormal cells × 100. The IC50 values of test compounds were calculated by linear regression plots.

[1] = Cell viability assay (MTS) on BV2 cells; conditions: mouse, BV2 microglial cells, MTS
Method: as §2, §3

[2] = test system: NO release from LPS-stimulated BV2 cells; assay: NO release inhibition in LPS-stimulated BV2 cells (Griess method); conditions: for Nitrite (NO release amount): BV2 cells induced by LPS, Griess test; for Nitrite (NO release amount) / inhibition at 20 µM: compound at 20 μM; for IC50 / inhibition at 20 µM: Mus musculus, BV-2, LPS-stimulated BV2 cells; for IC50: 24 h; for inhibition at 20 µM: read-out: NO inhibition rate
Method: BV2 cells stimulated by lipopolysaccharide (LPS) lead to an increase in NO release. Therefore, we used the inhibitory ability of the target compounds on NO as a preliminary method to evaluate their anti-neuroinflammatory properties. We evaluated the inhibitory ability of isatin–chalcone hybrid derivatives 4a–t on the release of NO from BV2 cells at 20 μM. The release amount of NO was detected by the Griess method, and the actual release amount of NO was calculated based on the experimental data.
BV2 cells were plated in 96-well microplates at 40,000 cells per well (100 μL/well) and incubated for 24 h. Then, 50 μL of LPS solution with a final concentration of 100 ng/mL and 50 μL of compounds (diluted with medium to a final concentration of 0.31–20 μM) were added, and each concentration had 3 parallel wells. The NO assay kit was used to carry out nitrite assays after 24 h. The 50 μL of culture medium was mixed with the GrisR1 (50 μL) and GrisR2 (50 μL) of the NO assay kit in another new 96-well plate. The absorbance was detected at 540 nm. The percentage of inhibition of NO was obtained from the following formula: [(Rlps − RB − RC)/(Rlps − RB)] × 100, where Rlps is the release amount of only the LPS-treated group, RB is the release amount of the normal control and RC is the release amount of the test compound and LPS-treated group. The IC50 values of test compounds were calculated by linear regression plots.

IC50 [2] [µM] | Structure (SMILES) | reduction of IL-6 levels (IL-6; compound at 1.5 μM, p < 0.0001) [%] | effect on production of IL-6 (IL-6) | reduction of TNF-α levels (TNF-α; compound at 1.5 μM, p < 0.0001) [%] | effect on production of TNF-α (TNF-α) | IC50 (BV2 microglial cells) [µM] | cytotoxicity (BV2 microglial cells; under the concentration of 12.5 μM) | viability at 24 h, 3.1 µM ([1]; compound at 3.1 μM, read-out: cell viability (cell survival rate)) [%] | viability at 24 h, 6.3 μM ([1]; compound at 6.3 μM (printed 6.23 μM for 4b), read-out: cell viability (cell survival rate)) [%] | viability at 24 h, 12.5 µM ([1]; compound at 12.5 μM) [%] | viability at 24 h, 25 µM ([1]; compound at 25 μM, 24 h) [%] | Nitrite (NO release amount) [2] [µM] | inhibition at 20 µM [2] [%]
1.6 | CCOC(=O)CN1C(=O)/C(=C/C(=O)/C=C/c2ccccc2)c2ccccc21 [Compound 4b, Ethyl 2-((E)-2-oxo-3-((E)-2-oxo-4-phenylbut-3-en-1-ylidene)indolin-1-yl)acetate] | 47 | decreased significantly | 37 | decreased significantly | 34.6 | did not show obvious cytotoxicity | 98.3 | 89.9 | 79.5 | 48 | 0.69 ± 0.01 | 98
10.3 | CCOC(=O)CN1C(=O)/C(=C/C(=O)c2cc(OC)c(OC)c(OC)c2)c2cc(C)ccc21 [Compound 9e, Ethyl (E)-2-(5-methyl-2-oxo-3-(2-oxo-2-(3,4,5-trimethoxyphenyl)ethylidene)indolin-1-yl)acetate] |  | relatively weaker inhibitory effects |  | relatively weaker inhibitory effects | 80.6 |  |  |  |  |  |  | 72
15.7 | CCOC(=O)CN1C(=O)/C(=C/C(=O)c2cc(OC)c(OC)c(OC)c2)c2ccccc21 [Compound 4j, Ethyl (E)-2-(2-oxo-3-(2-oxo-2-(3,4,5-trimethoxyphenyl)ethylidene)indolin-1-yl)acetate] |  | relatively weaker inhibitory effects |  | relatively weaker inhibitory effects | 71.8 |  |  |  |  |  | 8.6 ± 0.1 | 71
